Tested on: Plasmopara viticola
Experiment: Plasmopara viticola/Grape/Curative (Grape Downy Mildew)
Format: in vivo
Details: 200 ppm; grape seedlings cv. Gutedel, inoculated one day before application; compared to untreated
Description: Plasmopara viticola/Grape/Curative (Grape Downy Mildew)
5-week-old grape seedlings cv. Gutedel are inoculated by spraying a sporangia suspension on their lower leaf surface one day before application. The inoculated grape plants are sprayed in a spray chamber with the formulated test compound diluted in water. The inoculated test plants are incubated at 22° C. and 100% rh in a greenhouse and the percentage leaf area covered by disease is assessed when an appropriate level of disease appears on untreated check plants (4-6 days after application).

## CSC1CN(C(=O)Cn2nc(C(F)F)cc2C(F)F)CCC1c1nc(C2=NOC(c3c(F)cccc3F)C2)cs1 (stereo not shown) [I.az.223, 2-[3,5-bis(difluoromethyl)pyrazol-1-yl]-1-[4-[4-[5-(2,6-difluorophenyl)-4,5-dihydroisoxazol-3-yl]thiazol-2-yl]-3-methylsulfanyl-1-piperidyl]ethanone]
  disease control: at least 80%

From patent US20150031541A1 (priority 2012, published 2015)
